The compounds below were run against T1, Intercellular adhesion molecule (ICAM-1), Integrin alpha-L/beta-2 (Homo sapiens, UniProt P05107+P20701) (assay: Inhibition against binding of LFA-1 to ICAM-1).
Type: protein-complex assay

T1 sequence (P20701 whole entry): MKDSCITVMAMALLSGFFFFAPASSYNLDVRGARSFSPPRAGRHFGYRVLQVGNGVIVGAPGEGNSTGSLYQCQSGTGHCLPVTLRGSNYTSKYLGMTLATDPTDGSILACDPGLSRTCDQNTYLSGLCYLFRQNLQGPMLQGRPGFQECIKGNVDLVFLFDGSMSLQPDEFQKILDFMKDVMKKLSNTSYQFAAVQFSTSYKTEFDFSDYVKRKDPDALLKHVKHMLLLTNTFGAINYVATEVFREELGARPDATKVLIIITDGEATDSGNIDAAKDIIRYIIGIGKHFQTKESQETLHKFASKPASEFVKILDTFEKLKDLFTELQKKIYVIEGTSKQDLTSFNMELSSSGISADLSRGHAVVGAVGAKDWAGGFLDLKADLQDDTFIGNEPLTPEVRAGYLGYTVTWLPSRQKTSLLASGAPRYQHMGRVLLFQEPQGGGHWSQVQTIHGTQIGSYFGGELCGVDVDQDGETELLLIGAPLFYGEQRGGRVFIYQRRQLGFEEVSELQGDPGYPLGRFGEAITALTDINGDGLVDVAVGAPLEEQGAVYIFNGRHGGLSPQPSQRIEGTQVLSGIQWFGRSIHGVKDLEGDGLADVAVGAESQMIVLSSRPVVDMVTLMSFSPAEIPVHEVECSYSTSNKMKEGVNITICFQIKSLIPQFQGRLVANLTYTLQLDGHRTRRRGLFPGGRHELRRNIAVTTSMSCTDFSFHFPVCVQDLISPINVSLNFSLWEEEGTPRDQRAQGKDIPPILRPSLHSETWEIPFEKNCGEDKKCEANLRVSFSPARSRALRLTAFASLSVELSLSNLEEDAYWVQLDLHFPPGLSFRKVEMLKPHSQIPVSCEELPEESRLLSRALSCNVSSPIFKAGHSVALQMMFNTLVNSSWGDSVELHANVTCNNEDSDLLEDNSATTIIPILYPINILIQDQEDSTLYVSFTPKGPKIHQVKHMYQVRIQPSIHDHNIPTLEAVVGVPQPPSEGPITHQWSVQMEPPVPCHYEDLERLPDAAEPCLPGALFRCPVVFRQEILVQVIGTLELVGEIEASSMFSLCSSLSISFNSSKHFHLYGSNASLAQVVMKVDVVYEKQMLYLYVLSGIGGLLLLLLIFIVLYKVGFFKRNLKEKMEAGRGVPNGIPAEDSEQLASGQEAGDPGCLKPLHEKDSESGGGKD
T1 sequence (P05362 whole entry, further chain): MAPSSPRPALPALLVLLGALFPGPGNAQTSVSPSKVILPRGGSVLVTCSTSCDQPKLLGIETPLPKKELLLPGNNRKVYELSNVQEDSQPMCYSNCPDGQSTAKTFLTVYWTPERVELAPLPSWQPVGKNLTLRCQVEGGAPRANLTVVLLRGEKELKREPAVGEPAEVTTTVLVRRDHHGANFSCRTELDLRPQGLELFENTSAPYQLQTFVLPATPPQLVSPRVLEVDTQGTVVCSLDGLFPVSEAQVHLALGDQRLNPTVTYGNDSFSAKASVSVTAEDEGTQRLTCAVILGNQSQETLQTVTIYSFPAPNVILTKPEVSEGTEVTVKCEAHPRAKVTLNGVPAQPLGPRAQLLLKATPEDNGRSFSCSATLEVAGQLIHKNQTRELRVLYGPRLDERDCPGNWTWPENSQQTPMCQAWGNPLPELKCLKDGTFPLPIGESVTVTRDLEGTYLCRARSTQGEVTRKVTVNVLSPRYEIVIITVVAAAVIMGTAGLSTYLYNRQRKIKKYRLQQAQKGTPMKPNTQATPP
T1 sequence (P05107 whole entry): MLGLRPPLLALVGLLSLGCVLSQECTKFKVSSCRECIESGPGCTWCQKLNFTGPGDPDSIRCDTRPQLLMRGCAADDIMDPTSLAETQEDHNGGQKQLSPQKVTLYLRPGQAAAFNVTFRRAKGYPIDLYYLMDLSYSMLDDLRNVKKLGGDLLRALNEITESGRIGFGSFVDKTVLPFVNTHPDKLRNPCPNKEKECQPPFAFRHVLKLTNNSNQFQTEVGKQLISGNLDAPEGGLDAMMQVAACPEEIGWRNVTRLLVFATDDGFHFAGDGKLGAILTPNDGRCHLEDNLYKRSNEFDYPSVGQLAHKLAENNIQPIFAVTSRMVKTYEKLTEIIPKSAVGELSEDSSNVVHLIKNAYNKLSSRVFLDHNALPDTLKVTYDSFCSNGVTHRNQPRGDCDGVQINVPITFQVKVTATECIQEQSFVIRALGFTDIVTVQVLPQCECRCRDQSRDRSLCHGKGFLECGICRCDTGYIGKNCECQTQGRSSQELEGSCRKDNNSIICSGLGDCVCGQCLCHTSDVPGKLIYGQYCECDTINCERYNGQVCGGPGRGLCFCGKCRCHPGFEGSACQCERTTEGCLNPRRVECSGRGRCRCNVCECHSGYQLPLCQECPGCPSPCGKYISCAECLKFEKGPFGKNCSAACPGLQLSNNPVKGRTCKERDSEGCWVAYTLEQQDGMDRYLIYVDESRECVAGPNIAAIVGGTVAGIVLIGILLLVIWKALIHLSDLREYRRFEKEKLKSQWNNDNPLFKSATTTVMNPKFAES

Row | Structure (SMILES) | IC50
1 | Nc1ccc(Sc2ccc(Cl)cc2Cl)c(Cl)c1 | 1700 nM
2 | CN(C)CCN1c2ccccc2Sc2ccc(Cl)cc21 [CHOLRPHENETHAZINE] | 28000 nM

What follows are compounds tested against T1, Intercellular adhesion molecule (ICAM-1), Integrin alpha-L/beta-2 (assay: Ability to block the interaction between integrin LFA-1 and its adhesion partner ICAM-1 in a time-resolved fluorescent LFA-1/ICAM-1 biochemical interaction assay).
Type: protein-complex assay

Row | Structure (SMILES) | IC50
3 | CC(=O)N1CCN(C(=O)/C=C/c2ccc(Sc3ccc(Cl)cc3Cl)c(Cl)c2)CC1 | 140 nM
4 | O=C(/C=C/c1ccccc1Sc1ccc(Cl)cc1Cl)NCCCn1ccnc1 | 960 nM
5 | O=CN1CCN(Cc2ccccc2Sc2ccc(/C=C/C(=O)N3CCOCC3)cc2Cl)CC1 | 420 nM
6 | CC(=O)N1CCN(C(=O)/C=C/c2ccc(Sc3ccccc3Cl)c([N+](=O)[O-])c2)CC1 | 110 nM
7 | O=C(/C=C/c1ccccc1Sc1ccc(Cl)cc1Cl)NCCCCCCO | 100000 nM
8 | O=C(/C=C/c1cccc(Sc2ccc(Cl)cc2Cl)c1)N(CCO)CCO | 15000 nM
9 | O=C(/C=C/c1ccccc1Sc1ccc(Cl)cc1Cl)NCC1CCCO1 (centres undefined) | 2100 nM
10 | CC(=O)N1CCN(C(=O)/C=C/c2ccc(Sc3ccccc3N)c([N+](=O)[O-])c2)CC1 | 620 nM
11 | O=C(/C=C/c1ccccc1Sc1ccc(Cl)cc1Cl)N1CCOCC1 | 1200 nM
12 | CC(=O)N1CCN(C(=O)/C=C/c2ccc(Sc3ccc(Cl)cc3Cl)c([N+](=O)[O-])c2)CC1 | 90 nM
13 | O=C(/C=C/c1ccccc1Sc1ccc(Cl)cc1Cl)NCC(O)CO (centres undefined) | 3800 nM
14 | O=C(/C=C/c1ccc(Sc2ccc(Cl)cc2Cl)c(Cl)c1)N1CCN(c2ccccn2)CC1 | 750 nM
15 | O=C(/C=C/c1ccc(Sc2ccc(Cl)cc2Cl)c(/C=C/C(=O)N2CCOCC2)c1)N1CCOCC1 | > 20000 nM
16 | CC(=O)N1CCN(C(=O)/C=C/c2ccc(Sc3cccc(Cl)c3Cl)c([N+](=O)[O-])c2)CC1 | 100 nM
17 | CC(=O)N1CCN(C(=O)/C=C/c2ccc(Sc3ccccc3C=O)c([N+](=O)[O-])c2)CC1 | 60 nM
18 | CN(C)CCC(=O)Nc1ccccc1Sc1ccc(Cl)cc1Cl | 82000 nM
19 | CN1CCN(CCC(=O)Nc2ccccc2Sc2ccc(Cl)cc2Cl)CC1 | 33000 nM
20 | O=C(/C=C/c1ccc(Sc2ccc(Cl)cc2Cl)c(/C=C/C(=O)N2CCOCC2)c1)NCCCN1CCCC1=O | > 20000 nM
21 | O=C(/C=C/c1ccc(Sc2ccccc2CN2CCOCC2)c(Cl)c1)N1CCOCC1 | 150 nM
22 | CCc1ccccc1Sc1ccc(/C=C/C(=O)N2CCN(C(C)=O)CC2)cc1[N+](=O)[O-] | 65 nM
23 | O=C(O)c1cc(/C=C/C(=O)N2CCOCC2)ccc1Sc1ccc(Cl)cc1Cl | > 20000 nM

Row | Structure (SMILES) | IC50
24 | CN(CCC(=O)Nc1ccccc1Sc1ccc(Cl)cc1Cl)Cc1ccccc1 | > 100000 nM
25 | Clc1ccc(Sc2ccccc2NCCCN2CCOCC2)c(Cl)c1 | 140 nM
26 | CC(=O)N1CCN(C(=O)/C=C/c2ccc(Sc3ccccc3C(N)=O)c([N+](=O)[O-])c2)CC1 | 16200 nM
27 | O=C(/C=C/c1ccccc1Sc1ccc(Cl)cc1Cl)NCCc1ccccc1 | > 100000 nM
28 | CC(=O)N1CCN(C(=O)/C=C/c2ccc(Sc3ccccc3C)c([N+](=O)[O-])c2)CC1 | 120 nM
29 | O=C(/C=C/c1ccc(Sc2ccc(Cl)cc2Cl)c(Cl)c1)NCCCn1ccnc1 | 1400 nM
30 | O=C(/C=C/c1cccc(Sc2ccc(Cl)cc2Cl)c1)N1CCOCC1 | 16500 nM
31 | O=C(/C=C/c1ccc(Sc2ccc(Cl)cc2Cl)c(Cl)c1)NCCCCCCO | 590 nM
32 | CC(=O)N1CCN(C(=O)/C=C/c2ccc(Sc3ccccc3C(C)(C)C)c([N+](=O)[O-])c2)CC1 | 530 nM
33 | O=Cc1cc(/C=C/C(=O)N2CCOCC2)ccc1Sc1ccc(Cl)cc1Cl | 610 nM
34 | O=C(/C=C/c1ccc(Sc2ccc(Cl)cc2Cl)c(NCCCN2CCOCC2)c1)NCCCN1CCCC1=O | 15500 nM
35 | O=C(/C=C/c1ccc(Sc2ccc(Cl)cc2Cl)c(Br)c1)NCCCN1CCCC1=O | 650 nM
36 | O=C(/C=C/c1ccccc1Sc1ccc(Cl)cc1Cl)NCCO | 3300 nM
37 | O=C(/C=C/c1ccc(Sc2ccc(Cl)cc2Cl)c(Cl)c1)N(CCO)CCO | 710 nM
38 | Cc1cccc2sc(NC(=O)/C=C/c3ccccc3Sc3ccc(Cl)cc3Cl)nc12 | > 100000 nM
39 | Nc1cc(/C=C/C(=O)NCCCN2CCCC2=O)ccc1Sc1ccc(Cl)cc1Cl | 19000 nM
40 | O=C(O)/C=C/c1ccc(Sc2ccc(Cl)cc2Cl)c(Cl)c1 | 2600 nM
41 | CCOC(=O)CN(C)Cc1ccccc1Sc1ccc(/C=C/C(=O)N2CCOCC2)cc1Cl | 260 nM
42 | CCCN(CCC)CCC(=O)Nc1ccccc1Sc1ccc(Cl)cc1Cl | 61000 nM
43 | CC(=O)N1CCN(C(=O)/C=C/c2ccc(Sc3ccc(Cl)cc3Cl)c(/C=C/C(=O)N3CCOCC3)c2)CC1 | 18000 nM
44 | O=C(/C=C/c1ccc(Sc2ccccc2CN2CCN(Cc3ccc4c(c3)OCO4)CC2)c(Cl)c1)N1CCOCC1 | 100 nM

Row | Structure (SMILES) | IC50
45 | O=C(/C=C/c1ccc(Sc2ccc(Cl)cc2Cl)c(Cl)c1)NCCO | 920 nM
46 | O=C(/C=C/c1ccc(Sc2ccc(Cl)cc2Cl)c(Cl)c1)NCCCN1CCCC1=O | 550 nM
47 | CN1CCN(C(=O)/C=C/c2ccc(Sc3ccc(Cl)cc3Cl)c(Cl)c2)CC1 | 1100 nM
48 | O=C(CCN1CCCC1)Nc1ccccc1Sc1ccc(Cl)cc1Cl | > 10000 nM
49 | O=C(O)CNC(=O)/C=C/c1ccccc1Sc1ccc(Cl)cc1Cl | 3900 nM
50 | O=C(/C=C/c1ccccc1Sc1ccc(Cl)cc1Cl)N(CCO)CCO | 2300 nM
51 | O=C(/C=C/c1cccc(Sc2ccc(Cl)cc2Cl)c1)NCCCn1ccnc1 | 7000 nM
52 | CN(C)CCNCc1ccccc1Sc1ccc(Cl)cc1Cl | 5600 nM
53 | O=C(CCN1CCOCC1)Nc1ccccc1Sc1ccc(Cl)cc1Cl | 12000 nM
54 | O=C(/C=C/c1ccc(Sc2ccccc2/C=C/C(=O)N2CCOCC2)c(Cl)c1)N1CCOCC1 | 180 nM
55 | O=C(/C=C/c1ccccc1Sc1ccc(Cl)cc1Cl)NCCCN1CCCC1=O | 1600 nM
56 | O=C(O)/C=C/c1ccccc1Sc1ccc(Cl)cc1Cl | 2600 nM
57 | CC(=O)N1CCN(C(=O)/C=C/c2ccc(Sc3ccccc3N(C)C)c([N+](=O)[O-])c2)CC1 | 310 nM
58 | O=C(/C=C/c1cccc(Sc2ccc(Cl)cc2Cl)c1)NCCCCCCO | 9800 nM
59 | O=C(/C=C/c1ccc(Sc2ccc(Cl)cc2Cl)c(Cl)c1)N1CCOCC1 | 460 nM
60 | O=C(/C=C/c1ccccc1Sc1ccc(Cl)cc1Cl)N(Cc1ccccc1)Cc1ccc(Oc2ccccc2)cc1 | > 100000 nM
61 | O=C(/C=C/c1ccc(Sc2ccc(Cl)cc2Cl)c([N+](=O)[O-])c1)NCCCN1CCCC1=O | 170 nM
62 | NC(=O)c1cc(/C=C/C(=O)N2CCOCC2)ccc1Sc1ccc(Cl)cc1Cl | > 20000 nM
63 | O=C(/C=C/c1ccc(Sc2ccccc2NCCCN2CCOCC2)c(Cl)c1)N1CCOCC1 | 180 nM
64 | O=C(/C=C/c1cccc(Sc2ccc(Cl)cc2Cl)c1)NCCCN1CCCC1=O | 4500 nM
